The values below come from US12077636B2 (NISSAN CHEMICAL CORPORATION, priority 2013, dated 2024).

A short description of the series: Dissolution rate into the solvent. The series is classed as physicochemical. To be noted: compared with α-type:β-type in a range of 98:2 to 85:15.

As to `O=c1n(CC2CO2)c(=O)n(CC2CO2)c(=O)n1CC1CO1` (stereo not shown) [Tris-(2,3-epoxypropyl)-isocyanurate], the “dissolution rate for dissolution into the solvent” value is recorded as “slower”.
